According to patent publication US7109364B2, “Group of anti-cancer compounds with specific structure and their production method” (priority 2000, dated 2006):
In brackets after ≈: the same amount, converted by molar mass. Read-outs that look alike come from different tables or passages of the source.

Legend:
[1] = test system: B16 mouse melanoma cell line; assay: In vitro anti-cancer efficacy, B16, SRB method, 48 hours; format: cell-based; settings: for IC50 / IC90: Mus musculus; for IC50: read-out: B16 IC50; for IC90: read-out: B16 IC90
Experimental: (§1) The above compounds were dissolved in DMSO at stock concentration of 10 mg/ml and stored at 4° C. Before each experiment they were diluted to desired concentration with serum-free RPMI 1640 medium
2. B16 mouse melanoma cell line: B16 cells were maintained under the same condition as above. 2×10^4 cells/well were plated on 48-well plate and left for 12 hours for attachment. Cells were then treated with the test compounds and solvent control for 48 hours. Numbers of live cells were determined by SRB method. Briefly, cells were fixed with 50 μl/well 15% TCA for 1 hour, and then washed three times with double-distilled water. After drying 50 μl/well 1% SRB dye was added and reacted for 10 minutes. Plate was washed with 1% acetic acid. 0.2 ml Tris buffer (pH 9.6) was added and OD510 was recorded.
(§2) Reagents and Methods: same as in Experiment 1.

[2] = test system: K562 human leukemia cell line; assay: In vitro anti-cancer efficacy, K562, trypan blue dye exclusion, 48 hours; format: cell-based; settings: for IC50 / IC90: Homo sapiens; for IC50: read-out: K562 IC50; for IC90: read-out: K562 IC90
Experimental: as §1
1. K562 human leukemia cell line: K562 cells were maintained in RPMI 1640 medium with 5% fetal bovine serum at 37° C. under 5% CO2 atmosphere. 4×10^4 cells/well were plated on 96-well plate. After treatment with the test compounds and solvent control (DMSO) for 48 hours, numbers of live cells were counted by trypan blue dye exclusion.
as §2

[3] = Table 2, unit inferred, methods same as in Experiment 1
[4] = K562, Table 2, unit inferred, methods same as in Experiment 1

Row | Molecule | IC50 ([1]; Table 1, 48 hours) [µg/mL] | IC90 ([1]; Table 1, 48 hours) [µg/mL] | IC50 ([2]; K562, Table 1, 48 hours) [µg/mL] | IC90 ([2]; K562, Table 1, 48 hours) [µg/mL] | further results
1 | CC(C)CCCCCCCCCCCCCC(=O)O [15-methyl-hexadecanoic acid, reference compound] |  |  |  |  | IC50 [1, 3]: 20.7 µg/mL (≈ 76.5 µM); IC90 [1, 3]: 38.2 µg/mL (≈ 141 µM); IC50 [2, 4]: 25.9 µg/mL (≈ 95.8 µM); IC90 [2, 4]: 35.6 µg/mL (≈ 132 µM)
2 | CC(C)CCCCCCCCCCCCc1ccc(O)c(O)c1O [Compound 24, (13-Methyl tetradecyl)-2,3,4-trihydroxy phene] |  |  |  |  | B16 IC50 ([1]; Table 1, 48 hours): 12.8 µg/mL; B16 IC90 ([1]; Table 1, 48 hours): 19.5 µg/mL; K562 IC50 ([2]; Table 1, 48 hours): 13.6 µg/mL; K562 IC90 ([2]; Table 1, 48 hours): 19.2 µg/mL
3 | CC(C)CCCCCCCCCCC(=O)c1ccc(O)cc1O [Compound 18, (2,4,-dihydroxy phenyl)-12-methyl tridecanone] |  |  |  |  | B16 IC50 ([1]; Table 1, 48 hours): 5.91 µg/mL; B16 IC90 ([1]; Table 1, 48 hours): 8.12 µg/mL; K562 IC50 ([2]; Table 1, 48 hours): 6.42 µg/mL; K562 IC90 ([2]; Table 1, 48 hours): 8.90 µg/mL
4 | CC(C)CCCCCCCCCCCCNc1ccc(O)c(O)c1 [Compound 32, N-(13-Methyltetradecyl)-4-amino-1,2-benzenediol] | 5.75 (≈ 17.1 µM) | 10.6 (≈ 31.6 µM) | 6.31 (≈ 18.8 µM) | 11.5 (≈ 34.3 µM) | 
5 | (2,3,4-Trihydroxy phenyl)-12-methyl tridecanone [Compound 20] |  |  |  |  | B16 IC50 ([1]; Table 1, 48 hours): 14.8 µg/mL; B16 IC90 ([1]; Table 1, 48 hours): 19.32 µg/mL; K562 IC50 ([2]; Table 1, 48 hours): 15.3 µg/mL; K562 IC90 ([2]; Table 1, 48 hours): 20.2 µg/mL
6 | CC(C)CCCCCCCCCCC(Br)C(=O)O (stereo not shown) [Compound 27, 2-Bromo-13-methyl-tetradecanoic acid] | 6.1 (≈ 19 µM) | 11.2 (≈ 34.9 µM) | 7.21 (≈ 22.4 µM) | 10.1 (≈ 31.4 µM) | 
7 | CC(C)CCCCCCCCCCCC(=O)Nc1ccc(C(=O)O)c(O)c1 [Compound 12, N-(3-Hydroxy-4-carboxylphenyl)-13-methyl-tetradecanamide] | 16.5 (≈ 43.7 µM) | 22.9 (≈ 60.7 µM) | 18.7 (≈ 49.5 µM) | 24.7 (≈ 65.4 µM) | 
8 | CC(C)CCCCCCCC=CCCCCC(=O)O [15-methyl-6-hexadecenoic acid] |  |  |  |  | IC50 [1, 3]: 21.3 µg/mL (≈ 79.3 µM); IC90 [1, 3]: 35.2 µg/mL (≈ 131 µM); IC50 [2, 4]: 23.8 µg/mL (≈ 88.7 µM); IC90 [2, 4]: 30.5 µg/mL (≈ 114 µM)
9 | CC(C)CCCCCCCCCCCCc1ccc(O)cc1O [Compound 21, (13-Methyl tetradecyl)-2,4-dihydroxy phene] |  |  |  |  | B16 IC50 ([1]; Table 1, 48 hours): 3.22 µg/mL; B16 IC90 ([1]; Table 1, 48 hours): 5.14 µg/mL; K562 IC50 ([2]; Table 1, 48 hours): 3.62 µg/mL; K562 IC90 ([2]; Table 1, 48 hours): 5.25 µg/mL
10 | CC(C)CCCCCCCCCCCC(=O)N[C@H](C(=O)O)C(C)C [Compound 6, N-(13-methyl-tetradecanoyl)-L-valine] | 11.7 (≈ 34.3 µM) | 19.2 (≈ 56.2 µM) | 18.1 (≈ 53 µM) | 22.5 (≈ 65.9 µM) | 
11 | CC(C)CCCCCCCC(=O)O [9-methyl-decanoic acid, reference compound] |  |  |  |  | IC50 [1, 3]: 97 µg/mL (≈ 521 µM); IC90 [1, 3]: 280 µg/mL (≈ 1500 µM); IC50 [2, 4]: 55.5 µg/mL (≈ 298 µM); IC90 [2, 4]: 87 µg/mL (≈ 467 µM)
12 | CC(C)CCCCCCCCCCC(N)C(=O)O (stereo not shown) [Compound 28, 2-Amino-13-methyl-tetradecanoic acid] | 17.4 (≈ 67.6 µM) | 25.3 (≈ 98.3 µM) | 19.7 (≈ 76.5 µM) | 28.6 (≈ 111 µM) | 
13 | CC(C)CCCCCCCCCCCC(=O)N[C@@H](C)C(=O)O [Compound 4, N-(13-methyl-tetradecanoyl)-L-alanine] | 14.8 (≈ 47.2 µM) | 18.4 (≈ 58.7 µM) | 11.2 (≈ 35.7 µM) | 20.7 (≈ 66 µM) | 
14 | CC(C)CC=CCCCCC(=O)O [9-methyl-6-decenoic acid] |  |  |  |  | IC50 [1, 3]: 90 µg/mL (≈ 488 µM); IC90 [1, 3]: 269 µg/mL (≈ 1460 µM); IC50 [2, 4]: 50.8 µg/mL (≈ 276 µM); IC90 [2, 4]: 83 µg/mL (≈ 450 µM)
15 | CCN(CC)C(=O)CCCCCCCCCCCC(C)C [Compound 13, N,N-Diethyl-13-methyl-tetradecanamide] | 19.3 (≈ 64.9 µM) | 31.9 (≈ 107 µM) | 9.1 (≈ 30.6 µM) | 42.4 (≈ 143 µM) | 
16 | (2,4,6-Trihydroxyphenyl)-12-methyl tridecanone [Compound 19] |  |  |  |  | B16 IC50 ([1]; Table 1, 48 hours): 4.93 µg/mL; B16 IC90 ([1]; Table 1, 48 hours): 6.11 µg/mL; K562 IC50 ([2]; Table 1, 48 hours): 5.13 µg/mL; K562 IC90 ([2]; Table 1, 48 hours): 6.80 µg/mL
17 | CC(C)(C)CCCCCCCCCCCCc1ccc(O)cc1O [Compound 22, (13,13-Dimethyl tetradecyl)-2,4-dihydroxy phene] |  |  |  |  | B16 IC50 ([1]; Table 1, 48 hours): 3.63 µg/mL; B16 IC90 ([1]; Table 1, 48 hours): 5.42 µg/mL; K562 IC50 ([2]; Table 1, 48 hours): 3.92 µg/mL; K562 IC90 ([2]; Table 1, 48 hours): 5.36 µg/mL
18 | CC(C)CCCCCCCCCCCNc1ccc(O)c(O)c1 [Compound 26, N-(12-Methyl-tridecyl)-4-amino-1,2-benzenediol] | 5.81 (≈ 18.1 µM) | 12.6 (≈ 39.2 µM) | 6.73 (≈ 20.9 µM) | 13.5 (≈ 42 µM) | 
19 | CCC(C)CCCCCCCCCCCc1ccc(O)cc1O (stereo not shown) [Compound 23, (12-Methyl tetradecyl)-2,4-dihydroxy phene] |  |  |  |  | B16 IC50 ([1]; Table 1, 48 hours): 8.81 µg/mL; B16 IC90 ([1]; Table 1, 48 hours): 13.8 µg/mL; K562 IC50 ([2]; Table 1, 48 hours): 9.51 µg/mL; K562 IC90 ([2]; Table 1, 48 hours): 14.6 µg/mL
20 | CC(C)CCCCCCCCCCCC(=O)Nc1ccc(S(=O)(=O)O)cc1 [Compound 2, N-(4-Sulfo-phenyl)-13-methyl tetradecamide] |  |  |  |  | B16 IC50 ([1]; Table 1, 48 hours): 25.4 µg/mL; B16 IC90 ([1]; Table 1, 48 hours): 35.7 µg/mL; K562 IC50 ([2]; Table 1, 48 hours): 27.1 µg/mL; K562 IC90 ([2]; Table 1, 48 hours): 37.8 µg/mL
21 | CC(C)CCCCCCCCCCCNc1ccc(S(=O)(=O)O)cc1 [Compound 25, N-(12-Methyltridecyl)-4-amino benzenesulfonic acid] | 13.5 (≈ 36.5 µM) | 18.8 (≈ 50.9 µM) | 15.1 (≈ 40.9 µM) | 20 (≈ 54.1 µM) | 
22 | CC[C@H](C)[C@H](NC(=O)CCCCCCCCCCCC(C)C)C(=O)O [Compound 8, N-(13-methyl-tetradecanoyl)-L-isoleucine] | 11.1 (≈ 31.2 µM) | 18.9 (≈ 53.2 µM) | 19.3 (≈ 54.3 µM) | 28.6 (≈ 80.4 µM) | 
23 | CC(C)CCCCCCCCCCCC(=O)N[C@@H](C=O)[C@@H](O)[C@H](O)[C@H](O)CO [Compound 11, N-(13-methyl-tetradecanoyl)-2-amino-2-deoxyglucose] | 24.5 (≈ 60.7 µM) | 34.6 (≈ 85.7 µM) | 24.3 (≈ 60.2 µM) | 38.1 (≈ 94.4 µM) | 
24 | CC(C)CCCCCCCCCCCC(=O)N[C@@H](CCC(=O)O)C(=O)O [Compound 9, N-(13-methyl-tetradecanoyl)-L-glutamic acid] | 26.3 (≈ 70.8 µM) | 35.1 (≈ 94.5 µM) | 28.2 (≈ 75.9 µM) | 37.9 (≈ 102 µM) | 
25 | CC(C)CCCCCCCCCCCC(=O)N1CCC[C@H]1C(=O)O [Compound 10, N-(13-methyl-tetradecanoyl)-L-proline] |  |  |  |  | IC50 ([1]; 48 h): 15.2 µg/mL (≈ 44.8 µM); IC90 ([1]; 48 h): 17.3 µg/mL (≈ 51 µM); IC50 ([2]; K562, 48 h): 17.2 µg/mL (≈ 50.7 µM); IC90 ([2]; K562, 48 h): 25.3 µg/mL (≈ 74.5 µM)
26 | CC(C)CCCCCCCCCCCC(=O)N[C@@H](CC(C)C)C(=O)O [Compound 7, N-(13-methyl-tetradecanoyl)-L-leucine] | 10.4 (≈ 29.2 µM) | 20.1 (≈ 56.5 µM) | 11.8 (≈ 33.2 µM) | 30.6 (≈ 86.1 µM) | 
27 | CC(C)CCCCCCCCCCCC(=O)N1CCOCC1 [Compound 16, N-(13-Methyl-tetradecanoyl)morpholine] | 11.9 (≈ 38.2 µM) | 19.2 (≈ 61.6 µM) | 15.9 (≈ 51 µM) | 20.4 (≈ 65.5 µM) | 
28 | CC(C)CCCCCC=CC(=O)O [Compound 33, 9-Methyl-2-decenoic acid] |  |  | 51.2 (≈ 278 µM) |  | IC50 [1, 3]: 40.5 µg/mL (≈ 220 µM); IC90 [1, 3]: 91 µg/mL (≈ 494 µM); IC50 [2, 4]: 26.7 µg/mL (≈ 145 µM); IC90 [2, 4]: 51.2 µg/mL (≈ 278 µM)
29 | CC(C)CCCCCCCCCCCC(=O)NCC(=O)O [Compound 3, N-(13-methyl-tetradecanoyl)glycine] | 12.8 (≈ 42.7 µM) | 20.1 (≈ 67.1 µM) | 14.7 (≈ 49.1 µM) | 21.9 (≈ 73.1 µM) | 
30 | CC(C)CCCCCCCCCCCC(=O)N[C@@H](Cc1ccccc1)C(=O)O [Compound 5, N-(13-methyl-tetradecanoyl)-L-phenylalanine] | 13.4 (≈ 34.4 µM) | 20.5 (≈ 52.6 µM) | 10.3 (≈ 26.4 µM) | 19.6 (≈ 50.3 µM) | 
